Experimental data from patent publication US10765639B2, “Nanocapsules, methods of manufacture and uses thereof” (ADISSEO FRANCE S.A.S., priority 2016, dated 2020).

Key:
[1] = Bioavailability of TAC in vivo in roosters (plasma free tocopherol after force-feeding); design: species or system ISA Brown roosters; AUC 24 h (Room 1) / AUC 96 h (Room 1) / AUC 24 h (Room 2) / AUC 96 h (Room 2): concentration or dose not given beside the values; settings: for AUC 24 h (Room 1) / AUC 96 h (Room 1): Room 1, force-feeding; for AUC 24 h (Room 2) / AUC 96 h (Room 2): Room 2, force-feeding
Source text: The experimental scheme is described in detail in Preveraud et al. 2015, British Poultry Science, 56: 1; 94-102.
Briefly, two rooms with 60 ISA Brown roosters are placed in individual cages. One week before assigning the treatments, the roosters are fed with a feed devoid of vitamin E.
The roosters (n=10 roosters per treatment) were force-fed with different TAC solutions in water.
Room 1: Dry nanocapsules C24 of example 1, • TOL and TAC, in the form of oil, as a blank
Room 2: C40 dry nanocapsules of example 1, • TOL and TAC, in the form of oil, as a blank.
After the force-feeding administration of the vitamin E products put in a capsule, blood samples were taken at 0, 6, 12, 24, 48 and 96 h post force-feeding. After centrifugation, the plasma is decanted and the free tocopherol is measured up by HPLC.

[2] = oral administration, native vitamin E; cited from earlier work

Compound: CC(=O)Oc1c(C)c(C)c2c(c1C)CCC(C)(CCC[C@H](C)CCC[C@H](C)CCCC(C)C)O2 (stereo partly drawn) [TAC, alpha-tocopherol acetate]
- AUC 24 h (Room 1) [1]: 206 µg/mL/h
- AUC 96 h (Room 1) [1]: 597 µg/mL/h
- AUC 24 h (Room 2) [1]: 142 µg/mL/h
- AUC 96 h (Room 2) [1]: 340 µg/mL/h

Compound: tocopherol [TOL]
- %/TAC 24 h (Room 1) ([1]; Room 1, 24 h, diffusion percentage relative to TAC): +49%
- %/TAC 96 h (Room 1) ([1]; Room 1, 96 h, diffusion percentage relative to TAC): +100%
- AUC 24 h (Room 1) [1]: 307 µg/mL/h
- AUC 96 h (Room 1) [1]: 1193 µg/mL/h
- %/TAC 24 h (Room 2) ([1]; Room 2, 24 h, diffusion percentage relative to TAC): +118%
- %/TAC 96 h (Room 2) ([1]; Room 2, 96 h, diffusion percentage relative to TAC): +124%
- AUC 24 h (Room 2) [1]: 309 µg/mL/h
- AUC 96 h (Room 2) [1]: 320 µg/mL/h
- Bioavailability in animals when orally administered [2]: ≤ 50%
